Results from ChEMBL document CHEMBL1201862, “PubChem BioAssay data set” (2004).
Active and inactive are the calls of the source.

Assays:
Mucolipin-3 = Mucolipin-3 (Homo sapiens, UniProt Q8TDD5); experiment: Dose response cell-based high-throughput screening assay for agonists of the transient receptor potential channel ML3 (TRPML3). [Related pubchem assays: 1526, 1424, 1448 ]; assay type: functional
Ion channel NompC = Ion channel NompC (Danio rerio, UniProt Q7T1G6); experiment: Fluorescence counterscreen assay for TRPML3 agonists: dose response cell-based high-throughput screening assay to identify agonists of the transient receptor potential channel N1 (TRPN1). [Related pubchem assays: 1526, 1424, 1448 ]; assay type: functional
Sequence of Ion channel NompC (Q7T1G6 whole entry): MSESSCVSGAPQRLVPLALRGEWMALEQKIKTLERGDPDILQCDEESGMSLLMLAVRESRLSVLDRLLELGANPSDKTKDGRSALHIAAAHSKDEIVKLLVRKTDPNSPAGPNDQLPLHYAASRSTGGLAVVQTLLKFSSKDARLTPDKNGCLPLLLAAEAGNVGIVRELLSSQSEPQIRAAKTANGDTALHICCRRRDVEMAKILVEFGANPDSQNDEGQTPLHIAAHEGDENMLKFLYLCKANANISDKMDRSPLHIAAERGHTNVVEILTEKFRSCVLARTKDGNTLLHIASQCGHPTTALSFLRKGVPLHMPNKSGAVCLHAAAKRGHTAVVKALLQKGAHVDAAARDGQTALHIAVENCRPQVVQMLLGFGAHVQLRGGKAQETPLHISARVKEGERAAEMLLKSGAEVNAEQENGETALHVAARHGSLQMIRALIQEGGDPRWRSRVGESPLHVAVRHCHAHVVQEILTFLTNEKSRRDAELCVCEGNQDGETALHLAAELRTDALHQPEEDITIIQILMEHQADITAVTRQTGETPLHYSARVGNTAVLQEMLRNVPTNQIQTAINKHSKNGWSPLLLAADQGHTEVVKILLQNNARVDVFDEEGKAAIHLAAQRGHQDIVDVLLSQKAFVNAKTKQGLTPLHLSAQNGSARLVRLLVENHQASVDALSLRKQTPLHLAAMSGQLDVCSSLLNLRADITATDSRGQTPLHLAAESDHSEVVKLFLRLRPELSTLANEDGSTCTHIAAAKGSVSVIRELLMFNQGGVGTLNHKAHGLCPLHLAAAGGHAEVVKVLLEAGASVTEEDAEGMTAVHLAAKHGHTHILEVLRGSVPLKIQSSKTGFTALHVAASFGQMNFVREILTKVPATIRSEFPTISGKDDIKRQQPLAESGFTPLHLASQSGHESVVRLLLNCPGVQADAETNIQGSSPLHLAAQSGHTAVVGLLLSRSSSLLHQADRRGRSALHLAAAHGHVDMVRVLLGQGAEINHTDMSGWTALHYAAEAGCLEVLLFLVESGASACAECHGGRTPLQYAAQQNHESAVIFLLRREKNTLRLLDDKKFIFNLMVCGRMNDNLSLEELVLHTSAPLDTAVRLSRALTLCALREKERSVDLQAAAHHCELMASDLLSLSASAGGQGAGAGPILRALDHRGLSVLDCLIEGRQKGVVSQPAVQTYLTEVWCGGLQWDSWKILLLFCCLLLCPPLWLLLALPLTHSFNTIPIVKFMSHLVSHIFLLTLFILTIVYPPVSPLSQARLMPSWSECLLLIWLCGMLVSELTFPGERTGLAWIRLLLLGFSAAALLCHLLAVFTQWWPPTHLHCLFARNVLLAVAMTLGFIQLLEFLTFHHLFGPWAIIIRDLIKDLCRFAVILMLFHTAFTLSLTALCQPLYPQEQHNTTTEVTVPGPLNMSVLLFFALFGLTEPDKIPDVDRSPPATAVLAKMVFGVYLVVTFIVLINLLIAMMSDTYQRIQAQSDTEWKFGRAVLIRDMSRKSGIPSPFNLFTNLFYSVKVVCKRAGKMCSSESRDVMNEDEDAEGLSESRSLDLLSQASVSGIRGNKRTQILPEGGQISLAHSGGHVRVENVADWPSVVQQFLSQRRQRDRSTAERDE

[1] = biological target: T1, Corticotropin-releasing factor receptor 2/Corticotropin-releasing factor-binding protein (Homo sapiens, UniProt P24387+Q13324); experiment: activators of CRF receptor 2 with binding protein – uHTS hits, confirmation (AID 602473); assay type: functional; details: read-out: EC50_Mean
T1 sequence (Q13324 whole entry): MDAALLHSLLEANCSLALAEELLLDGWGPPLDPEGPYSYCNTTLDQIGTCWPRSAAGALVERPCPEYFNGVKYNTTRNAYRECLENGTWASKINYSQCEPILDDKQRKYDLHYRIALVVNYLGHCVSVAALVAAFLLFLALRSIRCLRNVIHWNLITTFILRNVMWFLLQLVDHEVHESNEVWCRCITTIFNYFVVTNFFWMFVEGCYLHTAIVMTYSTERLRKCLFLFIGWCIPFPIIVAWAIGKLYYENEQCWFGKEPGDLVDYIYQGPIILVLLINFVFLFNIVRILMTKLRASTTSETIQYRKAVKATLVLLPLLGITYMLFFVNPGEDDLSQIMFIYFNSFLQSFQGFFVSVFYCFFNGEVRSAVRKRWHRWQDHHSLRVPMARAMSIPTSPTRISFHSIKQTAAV
T1 sequence (P24387 whole entry): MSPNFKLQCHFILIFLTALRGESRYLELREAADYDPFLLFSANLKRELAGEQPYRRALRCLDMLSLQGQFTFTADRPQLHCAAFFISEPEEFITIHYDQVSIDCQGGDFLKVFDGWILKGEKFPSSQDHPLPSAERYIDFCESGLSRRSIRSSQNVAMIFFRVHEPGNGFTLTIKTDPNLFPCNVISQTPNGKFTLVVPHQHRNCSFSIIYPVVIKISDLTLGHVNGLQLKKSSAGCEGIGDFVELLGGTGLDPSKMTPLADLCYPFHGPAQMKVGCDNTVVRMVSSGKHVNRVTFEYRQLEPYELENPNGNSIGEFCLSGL

[2] = biological target: T2, RNA-binding protein pos-1 (Caenorhabditis elegans, UniProt G5EF15); experiment: inhibitors of POS-1/mex-3 RNA binding, dose response, biochemical, fluorescence polarization (AID 1964);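 further: purified POS-1 fused to maltose binding protein made in E. coli; potency of compounds blocking POS-1 binding to fluorescent RNA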
T2 sequence (G5EF15 whole entry): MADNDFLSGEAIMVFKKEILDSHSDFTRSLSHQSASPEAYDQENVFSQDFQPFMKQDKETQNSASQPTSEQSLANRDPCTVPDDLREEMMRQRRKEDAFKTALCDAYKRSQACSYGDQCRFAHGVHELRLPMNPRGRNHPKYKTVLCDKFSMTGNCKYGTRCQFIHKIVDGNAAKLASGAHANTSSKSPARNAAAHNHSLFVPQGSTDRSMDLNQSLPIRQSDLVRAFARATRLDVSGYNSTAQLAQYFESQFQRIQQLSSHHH

[3] = biological target: T3, Neuropeptide Y receptor type 1 (Homo sapiens, UniProt P25929); assay type: functional;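 further: HEK293 cells with a CNG channel challenged with NPY then isoproterenol; potency as antagonist that reverses NPY suppression of cAMP signal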
T3 sequence (P25929 whole entry): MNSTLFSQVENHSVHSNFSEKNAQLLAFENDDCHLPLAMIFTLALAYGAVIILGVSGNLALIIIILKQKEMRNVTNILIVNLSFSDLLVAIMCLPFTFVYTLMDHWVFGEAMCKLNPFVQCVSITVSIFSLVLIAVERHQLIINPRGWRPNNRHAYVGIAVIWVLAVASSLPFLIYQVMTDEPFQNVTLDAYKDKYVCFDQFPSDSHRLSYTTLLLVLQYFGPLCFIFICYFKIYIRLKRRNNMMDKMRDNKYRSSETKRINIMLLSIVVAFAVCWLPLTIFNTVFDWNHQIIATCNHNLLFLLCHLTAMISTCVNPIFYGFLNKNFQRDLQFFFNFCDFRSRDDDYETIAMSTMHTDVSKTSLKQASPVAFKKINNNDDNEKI

[4] = biological target: T4, Zinc finger protein mex-5 (Caenorhabditis elegans, UniProt Q9XUB2); experiment: MEX-5/TCR-2 RNA interaction inhibitors, dose response, biochemical, C. elegans, fluorescence polarization (AID 1960)
T4 sequence (Q9XUB2 whole entry): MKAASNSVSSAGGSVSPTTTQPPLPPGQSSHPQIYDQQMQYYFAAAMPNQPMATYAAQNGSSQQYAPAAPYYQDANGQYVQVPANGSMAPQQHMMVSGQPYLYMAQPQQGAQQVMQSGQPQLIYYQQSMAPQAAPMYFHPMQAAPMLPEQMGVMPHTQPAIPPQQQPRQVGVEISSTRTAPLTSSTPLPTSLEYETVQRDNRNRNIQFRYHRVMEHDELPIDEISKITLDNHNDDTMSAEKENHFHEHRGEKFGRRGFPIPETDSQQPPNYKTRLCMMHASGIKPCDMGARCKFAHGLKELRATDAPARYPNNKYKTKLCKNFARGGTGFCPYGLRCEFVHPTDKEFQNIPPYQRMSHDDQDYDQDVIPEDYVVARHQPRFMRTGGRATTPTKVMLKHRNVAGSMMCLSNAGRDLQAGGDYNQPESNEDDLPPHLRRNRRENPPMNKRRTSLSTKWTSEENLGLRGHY

[5] = biological target: T5, Neuropeptide Y receptor type 2 (Homo sapiens, UniProt P49146); assay type: functional, cell-based;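 further: HEK293 cells expressing the receptor and a CNG channel; stimulus was NPY near EC95 followed by isoproterenol to raise cAMP; antagonist potency measured as restoring cAMP signal that NPY suppresses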
T5 sequence (P49146 whole entry): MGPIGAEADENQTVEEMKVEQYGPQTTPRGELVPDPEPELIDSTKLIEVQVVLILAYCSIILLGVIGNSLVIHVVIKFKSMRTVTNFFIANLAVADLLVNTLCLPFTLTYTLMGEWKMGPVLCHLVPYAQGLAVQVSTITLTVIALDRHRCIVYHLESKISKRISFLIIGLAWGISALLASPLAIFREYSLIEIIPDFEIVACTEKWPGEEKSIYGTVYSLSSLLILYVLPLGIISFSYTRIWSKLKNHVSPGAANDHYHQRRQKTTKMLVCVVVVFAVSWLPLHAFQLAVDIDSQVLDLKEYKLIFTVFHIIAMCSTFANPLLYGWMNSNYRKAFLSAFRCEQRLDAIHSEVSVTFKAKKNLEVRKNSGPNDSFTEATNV

[6] = biological target: Luciferin 4-monooxygenase (Photinus pyralis, UniProt P08659); experiment: Counter Screen for Luciferase-based Assay Positives. [Related pubchem assays: 620, 618, 411 ]
Sequence of Luciferin 4-monooxygenase (P08659 whole entry): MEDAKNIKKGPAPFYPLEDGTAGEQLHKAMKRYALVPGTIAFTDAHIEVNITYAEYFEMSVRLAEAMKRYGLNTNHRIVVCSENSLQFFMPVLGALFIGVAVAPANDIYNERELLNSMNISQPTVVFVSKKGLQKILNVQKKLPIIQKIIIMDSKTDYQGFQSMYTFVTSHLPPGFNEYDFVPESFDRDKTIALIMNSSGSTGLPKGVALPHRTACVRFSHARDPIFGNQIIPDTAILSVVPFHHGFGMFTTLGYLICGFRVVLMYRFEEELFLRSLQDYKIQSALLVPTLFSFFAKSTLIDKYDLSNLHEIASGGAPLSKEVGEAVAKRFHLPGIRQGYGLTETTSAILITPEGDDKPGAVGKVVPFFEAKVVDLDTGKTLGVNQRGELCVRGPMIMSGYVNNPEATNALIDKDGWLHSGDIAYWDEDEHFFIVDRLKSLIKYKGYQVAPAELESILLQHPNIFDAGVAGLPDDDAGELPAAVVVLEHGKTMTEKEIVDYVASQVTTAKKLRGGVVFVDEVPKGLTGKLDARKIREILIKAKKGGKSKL

HT-1080 = experiment: cytotoxicity in HT1080 fibrosarcoma cells, cell-based, fluorescence readout (AID 620); assay type: functional; details: Homo sapiens
cells [7] = assay type: functional, cell-based
cells [8] = assay type: functional, cell-based; remark: listed apart in the source

Sequence of Mucolipin-3 (Q8TDD5 whole entry): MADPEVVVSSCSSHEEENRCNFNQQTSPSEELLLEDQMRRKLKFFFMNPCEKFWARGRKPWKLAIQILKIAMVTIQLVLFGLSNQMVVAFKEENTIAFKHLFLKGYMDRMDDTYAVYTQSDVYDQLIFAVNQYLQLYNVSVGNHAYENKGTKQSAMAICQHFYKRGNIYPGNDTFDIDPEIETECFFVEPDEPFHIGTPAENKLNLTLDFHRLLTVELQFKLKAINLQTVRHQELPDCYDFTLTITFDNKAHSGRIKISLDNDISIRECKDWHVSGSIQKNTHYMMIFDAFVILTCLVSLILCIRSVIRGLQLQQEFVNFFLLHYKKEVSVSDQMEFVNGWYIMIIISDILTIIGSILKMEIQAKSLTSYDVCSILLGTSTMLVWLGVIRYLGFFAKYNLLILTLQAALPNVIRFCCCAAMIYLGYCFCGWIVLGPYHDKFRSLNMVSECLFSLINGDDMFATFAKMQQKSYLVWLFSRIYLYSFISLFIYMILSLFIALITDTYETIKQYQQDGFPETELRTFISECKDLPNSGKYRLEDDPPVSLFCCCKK

EC50 (Mucolipin-3) | EC50 (Ion channel NompC) | SMILES | IC50 [3] | IC50 [5] | other results
17.3 µM (not active) | 9.35 µM (active) | COc1ccc(C(=O)CSc2nnn(-c3cccc(NC(C)=O)c3)n2)cc1 |  |  | EC50 [1]: 4.96 µM (active)
 |  | O=C1C2CC=C(Cl)CC2C(=O)N1CC1Cc2ccccc2CO1 (stereo not given) | 7.82 µM (active) | 5.72 µM (active) | EC50 [2]: 23 µM (active); EC50 [4]: 22 µM (active)
3.96 µM (active) | > 29.9 µM (not active) | CC(C)[C@H](NS(=O)(=O)c1ccccc1)C(=O)OCC(=O)Nc1ccccc1Sc1ccccc1 |  |  | 
 |  | COc1ccc(S(=O)(=O)N2CCN(C(=O)CCC3CCCC3)CC2)cc1 |  |  | EC50 [6]: 2.3 µM (active); EC50 (HT-1080): > 50 µM (not active)
 |  | CCCCCCCCCS(=O)(=O)N/N=C/c1cccc([N+](=O)[O-])c1 | > 35 µM (not active) | > 35 µM (not active) | EC50 (cells [7]): > 350 µM (not active); EC50 (cells [8]): 23.7 µM (active)
